In article PMC3914206:

Columns and labels:
Format in all cases: binding
panel of 442 kinases [1] = target: T1, panel of 442 kinases (Homo sapiens, UniProt O96013); settings: Compound Concentration 10 µM
T1 construct: purchased KINOMEscan
Source text: (§1) We assessed the selectivity of members of this scaffold using the KINOMEscan methodology across a near comprehensive panel of 442 kinases [[18,27]].

panel of 442 kinases [2] = target: T2, panel of 442 kinases (Homo sapiens, UniProt P43403); settings: kinase ZAP70; compound concentration 10 µM
T2 construct: purchased KINOMEscan
T2 sequence (P43403 1-619): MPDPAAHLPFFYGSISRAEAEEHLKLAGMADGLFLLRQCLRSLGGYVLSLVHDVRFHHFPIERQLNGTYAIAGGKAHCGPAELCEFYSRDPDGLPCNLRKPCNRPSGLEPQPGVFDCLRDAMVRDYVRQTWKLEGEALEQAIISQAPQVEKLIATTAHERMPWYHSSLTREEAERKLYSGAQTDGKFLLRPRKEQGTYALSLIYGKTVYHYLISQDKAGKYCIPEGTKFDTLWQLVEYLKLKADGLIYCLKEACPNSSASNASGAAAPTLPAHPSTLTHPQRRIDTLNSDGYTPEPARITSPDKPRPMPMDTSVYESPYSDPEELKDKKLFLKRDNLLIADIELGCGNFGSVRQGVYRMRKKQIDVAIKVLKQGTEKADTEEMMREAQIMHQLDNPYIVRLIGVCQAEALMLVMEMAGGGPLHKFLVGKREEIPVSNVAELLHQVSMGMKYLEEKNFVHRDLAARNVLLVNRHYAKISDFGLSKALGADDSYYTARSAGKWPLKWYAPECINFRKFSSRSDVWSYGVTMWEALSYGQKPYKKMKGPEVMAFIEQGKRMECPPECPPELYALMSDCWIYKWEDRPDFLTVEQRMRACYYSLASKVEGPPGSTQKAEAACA
Source text: as §1

panel of 442 kinases [3] = target: T3, panel of 442 kinases (Homo sapiens, UniProt Q9NYL2); settings: kinase ZAK; compound concentration 10 µM
T3 construct: purchased KINOMEscan
T3 sequence (Q9NYL2 whole entry): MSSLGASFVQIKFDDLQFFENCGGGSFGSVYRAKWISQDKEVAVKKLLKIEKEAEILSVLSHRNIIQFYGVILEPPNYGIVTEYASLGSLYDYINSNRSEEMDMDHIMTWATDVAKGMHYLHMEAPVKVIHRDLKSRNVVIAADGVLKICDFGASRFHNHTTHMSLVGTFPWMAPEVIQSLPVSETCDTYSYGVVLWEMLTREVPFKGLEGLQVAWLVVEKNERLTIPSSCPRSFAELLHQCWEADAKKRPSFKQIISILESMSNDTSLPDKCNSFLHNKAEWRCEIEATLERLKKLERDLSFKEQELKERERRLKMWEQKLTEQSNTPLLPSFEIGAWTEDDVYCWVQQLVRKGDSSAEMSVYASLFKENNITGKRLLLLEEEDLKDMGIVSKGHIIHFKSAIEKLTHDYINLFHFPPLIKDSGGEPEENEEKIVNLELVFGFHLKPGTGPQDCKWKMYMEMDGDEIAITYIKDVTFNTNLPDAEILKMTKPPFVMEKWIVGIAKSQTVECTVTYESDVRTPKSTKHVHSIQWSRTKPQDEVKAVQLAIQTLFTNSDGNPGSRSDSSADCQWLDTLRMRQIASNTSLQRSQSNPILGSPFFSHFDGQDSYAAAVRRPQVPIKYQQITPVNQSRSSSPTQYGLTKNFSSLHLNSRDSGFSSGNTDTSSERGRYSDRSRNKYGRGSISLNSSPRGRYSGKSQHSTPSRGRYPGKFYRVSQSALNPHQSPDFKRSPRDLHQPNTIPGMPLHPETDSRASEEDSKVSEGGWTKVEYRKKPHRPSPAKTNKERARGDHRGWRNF
Source text: as §1

T1 sequence (O96013 whole entry): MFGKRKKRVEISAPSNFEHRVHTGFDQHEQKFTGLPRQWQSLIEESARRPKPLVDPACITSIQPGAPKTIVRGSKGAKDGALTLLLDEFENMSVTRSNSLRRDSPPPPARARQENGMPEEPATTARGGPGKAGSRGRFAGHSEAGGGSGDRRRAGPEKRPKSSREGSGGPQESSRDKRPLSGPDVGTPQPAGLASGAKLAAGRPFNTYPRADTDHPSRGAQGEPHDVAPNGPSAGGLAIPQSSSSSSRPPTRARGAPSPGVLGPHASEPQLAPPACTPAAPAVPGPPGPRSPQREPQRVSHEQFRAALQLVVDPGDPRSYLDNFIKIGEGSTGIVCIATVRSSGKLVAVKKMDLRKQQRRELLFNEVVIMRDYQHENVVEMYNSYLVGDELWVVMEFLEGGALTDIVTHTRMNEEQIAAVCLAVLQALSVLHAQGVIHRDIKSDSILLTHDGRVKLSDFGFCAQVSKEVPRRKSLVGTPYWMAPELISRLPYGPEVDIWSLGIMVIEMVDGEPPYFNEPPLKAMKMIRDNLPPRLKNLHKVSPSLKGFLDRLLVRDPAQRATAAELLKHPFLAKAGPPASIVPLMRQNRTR

Structure (SMILES)	KINOMEscan: PAK4 (panel of 442 kinases [1])	% Ctrl, ZAP70 (panel of 442 kinases [2])	% Ctrl, ZAK (panel of 442 kinases [3])
COc1cc(C(=O)N2CCC(N3CCN(C)CC3)CC2)ccc1Nc1ncc2c(n1)N(C)c1ccccc1C(=O)N2C [15 (LRRK2-IN-1)]	94	79 % Ctrl	99 % Ctrl
COc1cc(C(=O)N2CCC(N3CCN(C)CC3)CC2)ccc1Nc1ncc2c(n1)N1CCc3cccc(c31)C(=O)N2C [Compound 24]		100 % Ctrl	88 % Ctrl
COc1cc(C(=O)N2CCC(N3CCN(C)CC3)CC2)ccc1Nc1ncc2c(n1)N(C1CCCC1)c1ccccc1C(=O)N2C [Compound 25, 11-cyclopentyl-2-((2-methoxy-4-(4-(4-methylpiperazin-1-yl)piperidine-1-carbonyl)phenyl)amino)-5-methyl-5H-benzo[e]pyrimido[5,4-b][1,4]diazepin-6(11H)-one]	91	79 % Ctrl	100 % Ctrl
CCOc1cc(C(=O)N2CCC(N3CCN(C)CC3)CC2)ccc1Nc1ncc2c(n1)N(C1CCCC1)c1ccccc1C(=O)N2C [Compound 26]	100	90 % Ctrl	100 % Ctrl
